The source made the active and inactive calls. The calls are words filed in the database; no cut-off is given here.
Experiments:
Aspergillus fumigatus [1] = assay: Antifungal activity against Aspergillus fumigatus at 100 ug/ml after 72 hr; type: functional; conditions: for zone of inhibition at 100 µg/mL: read-out: DIZ
Aspergillus niger [2] = assay: Antifungal activity against Aspergillus niger at 100 ug/ml after 72 hr; type: functional; conditions: for zone of inhibition at 100 µg/mL: read-out: DIZ
Candida albicans [3] = assay: Antifungal activity against Candida albicans at 100 ug/ml after 18 to 48 hr; type: functional; conditions: for zone of inhibition at 100 µg/mL: read-out: DIZ
Escherichia coli [4] = assay: Antibacterial activity against Escherichia coli K-12 at 100 ug/ml after 24 hr by filter paper disk method; type: functional; conditions: for zone of inhibition at 100 µg/mL: K-12, 24 h, read-out: DIZ
Salmonella typhimurium [5] = assay: Antibacterial activity against Salmonella enterica subsp. enterica serovar Typhimurium MTCC 98 at 100 ug/ml after 24 hr by filter paper disk method; type: functional; conditions: for zone of inhibition at 100 µg/mL: MTCC 98, 24 h, read-out: DIZ
Bacillus subtilis [6] = assay: Antibacterial activity against Bacillus subtilis MTCC 121 at 100 ug/ml after 24 hr by filter paper disk method; type: functional; conditions: for zone of inhibition at 100 µg/mL: MTCC 121, 24 h, read-out: DIZ
Staphylococcus aureus [7] = assay: Antibacterial activity against Staphylococcus aureus SA 22 at 100 ug/ml after 24 hr by filter paper disk method; type: functional; conditions: for zone of inhibition at 100 µg/mL: SA 22, 24 h, read-out: DIZ
Aspergillus fumigatus [8] = assay: Antifungal activity against Aspergillus fumigatus at 30 ug/disk after 72 hr; type: functional, organism-based
Aspergillus niger [9] = assay: Antifungal activity against Aspergillus niger at 30 ug/disk after 72 hr; type: functional, organism-based
Candida albicans [10] = assay: Antifungal activity against Candida albicans at 30 ug/disk after 18 to 48 hr; type: functional, organism-based
Salmonella typhimurium [11] = assay: Antibacterial activity against Salmonella enterica subsp. enterica serovar Typhimurium MTCC 98 at 30 ug/disc after 24 hr by filter paper disk method; type: functional; conditions: MTCC 98, 24 h, read-out: DIZ
Escherichia coli [12] = assay: Antibacterial activity against Escherichia coli K-12 at 30 ug/disc after 24 hr by filter paper disk method; type: functional; conditions: K-12, 24 h, read-out: DIZ
Bacillus subtilis [13] = assay: Antibacterial activity against Bacillus subtilis MTCC 121 at 30 ug/disk after 24 hr by filter paper disk method; type: functional; conditions: MTCC 121, 24 h, read-out: DIZ
Staphylococcus aureus [14] = assay: Antibacterial activity against Staphylococcus aureus SA 22 at 30 ug/disc after 24 hr by filter paper disk method; type: functional; conditions: SA 22, 24 h, read-out: DIZ

Compound | diameter of the inhibition zone (DIZ) (Aspergillus fumigatus [1]) | diameter of the inhibition zone (DIZ) (Aspergillus niger [2]) | diameter of the inhibition zone (DIZ) (Candida albicans [3]) | zone of inhibition at 100 µg/mL (Escherichia coli [4]) [mm] | zone of inhibition at 100 µg/mL (Salmonella typhimurium [5]) [mm] | zone of inhibition at 100 µg/mL (Bacillus subtilis [6]) [mm] | zone of inhibition at 100 µg/mL (Staphylococcus aureus [7]) [mm] | zone of inhibition at 100 µg/mL (Aspergillus fumigatus [1]) [mm] | zone of inhibition at 100 µg/mL (Aspergillus niger [2]) [mm] | zone of inhibition at 100 µg/mL (Candida albicans [3]) [mm] | diameter of the inhibition zone (DIZ) (Salmonella typhimurium [5]) | further results
Cc1nn(-c2ccccc2)c(Cl)c1C=C1C(=O)NC(=O)NC1=O | inactive | inactive | inactive | 15 | 12 | 19 | 17 | – | – | – | – | –
Cc1nn(-c2ccccc2)c(Cl)c1C=C1C(=O)N(C)C(=O)N(C)C1=O | – | – | – | 15 | 14 | 16 | 20 | 11 | 8 | 11 | – | –
Cc1nn(-c2ccccc2)c(Cl)c1C=C1C(=O)N(C)C(=S)N(C)C1=O | inactive | inactive | – | 15 | 17 | 8 | 12 | – | – | 16 | – | –
Cc1nn(-c2ccccc2)c(Cl)c1/C=C1\Sc2ccccc2NC1=O | inactive | inactive | – | 8 | – | – | 14 | – | – | 15 | inactive | diameter of the inhibition zone (DIZ) (Bacillus subtilis [6]): inactive
NYSTATIN | – | – | – | – | – | – | – | – | – | – | inactive | inhibition zone (IZ) (Aspergillus fumigatus [8]): 18 mm; inhibition zone (IZ) (Aspergillus niger [9]): 18 mm; inhibition zone (IZ) (Candida albicans [10]): 20 mm; diameter of the inhibition zone (DIZ) (Escherichia coli [4]): inactive; diameter of the inhibition zone (DIZ) (Bacillus subtilis [6]): inactive; diameter of the inhibition zone (DIZ) (Staphylococcus aureus [7]): inactive
Cc1nn(-c2ccccc2)c(Cl)c1C=C1C(=O)c2ccccc2C1=O | – | – | – | 17 | 15 | 8 | 12 | 10 | 8 | 12 | – | –
O=C(N[C@H](CO)[C@H](O)c1ccc([N+](=O)[O-])cc1)C(Cl)Cl [CHLORAMPHENICOL] | inactive | inactive | inactive | – | – | – | – | – | – | – | – | zone of inhibition at 30 µg/disc (Salmonella typhimurium [11]): 20 mm; zone of inhibition at 30 µg/disc (Escherichia coli [12]): 25 mm; zone of inhibition at 30 µg/disc (Bacillus subtilis [13]): 24 mm; zone of inhibition at 30 µg/disc (Staphylococcus aureus [14]): 26 mm
CC1=NN(c2ccccc2)C(=O)/C1=C/c1c(C)nn(-c2ccccc2)c1Cl | – | – | inactive | 8 | 12 | 12 | – | 11 | 10 | – | – | diameter of the inhibition zone (DIZ) (Staphylococcus aureus [7]): inactive
Cc1nn(-c2ccccc2)c(Cl)c1C=C1C(=O)OC(C)(C)OC1=O | inactive | inactive | – | – | – | 15 | 19 | – | – | 14 | inactive | diameter of the inhibition zone (DIZ) (Escherichia coli [4]): inactive
